Results on 36 compounds are retold here after patent US20250059184A1 (priority 2021, published 2025).

Test [1] deals with T1, 5-HT2A (Homo sapiens, UniProt P28223). The test can be described thus: Serotonin 5-HT2A in vitro radioligand binding competition assay ([3H]-DOI). To be noted: [3H]-DOI radiotracer, membrane extracts. Also noted: purchased Epics Therapeutics S.A. (Belgium) FAST-0505B. The protocol:
Serotonin 5-HT2A In Vitro Radioligand Binding Competition Assay. The 5-HT2A radioligand binding competition assay was performed at Epics Therapeutics S.A. (Belgium, FAST-0505B) using conventional methods. Briefly, competition binding was performed in duplicate in the wells of a 96 well plate (Master Block, Greiner, 786201) containing binding buffer (optimized for each receptor), membrane extracts (amount of protein/well optimized for each receptor), radiotracer [^3H]-DOI (final concentration optimized for each receptor) and test compound. Nonspecific binding was determined by co-incubation with 200-fold excess of cold competitor. The samples were incubated in a final volume of 0.1 ml at a temperature and for a duration optimized for each receptor and then filtered over filter plates. Filters were washed six times with 0.5 ml of ice-cold washing buffer (optimized for each receptor) and 50 μl of Microscint 20 (Packard) were added in each well. The plates were incubated 15 min on an orbital shaker and then counted with a TopCount™ for 1 min/well.

The target of test [2] is T1, 5-HT2A. Kind of test: Serotonin 5-HT2A in vitro cellular IPOne agonism assay (HTRF). As to conditions: CHO-K1 cells, agonist mode. Also noted: host or cells: CHO-K1. Type of test: cell-based. The protocol:
Serotonin 5-HT2A In Vitro Cellular IPOne Agonism Assay. The 5-HT2A IPOne HTRF assay was performed at Epics Therapeutics S.A. (Belgium, FAST-0505I) using conventional methods. Briefly, CHO-K1 cells expressing human recombinant 5-HT2A receptor grown to mid-log phase in culture media without antibiotics were detached with PBS-EDTA, centrifuged, and resuspended in medium without antibiotics buffer. 20,000 cells were distributed in a 96 well plate and incubated overnight at 37° C. with 5% Co2.
For agonist testing, the medium was removed and 20 μl of assay buffer plus 20 μl of test compound or reference agonist were added in each well. The plate was incubated for 60 min. at 37° C. with 5% CO2.
(§1) After addition of the lysis buffer containing IP1-d2 and anti-IP1 cryptate detection reagents, plates were incubated 1-hour at room temperature, and fluorescence ratios were measured according to the manufacturer specification, with the HTRF kit.
For orientation: Time-resolved FRET reads energy transfer from a long-lived donor to a nearby acceptor.

In test [3] the target is T1, 5-HT2A. The test can be described thus: Serotonin 5-HT2A in vitro cellular IPOne antagonism assay (HTRF). The format is cell-based. Also noted: host or cells: CHO-K1. As to conditions: CHO-K1 cells, reference agonist α-Me-5HT; read-out: 5-HT2A IPOne Antagonist Activity. Here is the method: Serotonin 5-HT2A In Vitro Cellular IPOne Antagonism Assay. The 5-HT2A IPOne HTRF assay was performed at Epics Therapeutics S.A. (Belgium, FAST-O0505) in antagonism mode using conventional methods. Briefly, CHO-K1 cells expressing human recombinant 5-HT2A receptor grown to mid-log phase in culture media without antibiotics were detached with PBS-EDTA, centrifuged, and resuspended in medium without antibiotics buffer. 20,000 cells were distributed in a 96 well plate and incubated overnight at 37° C. with 5% Co2.
For antagonist testing, a reference agonist α-Me-5HT was added and fluorescence signal monitored for several minutes, followed by addition of 20 μl of assay buffer plus 20 μl of test compound or reference antagonist ketanserin, in each well. The plate was incubated for 60 min. at 37° C. with 5% CO2.
as §1

Molecules are shown by their SMILES. pEC50, pIC50: −log10 of the molar value.

For orientation: pEC50 means the EC50 on a negative log10 scale, so that one unit is a factor of ten. High values mean a low EC50, low ones a high EC50.

T1 sequence (P28223 whole entry): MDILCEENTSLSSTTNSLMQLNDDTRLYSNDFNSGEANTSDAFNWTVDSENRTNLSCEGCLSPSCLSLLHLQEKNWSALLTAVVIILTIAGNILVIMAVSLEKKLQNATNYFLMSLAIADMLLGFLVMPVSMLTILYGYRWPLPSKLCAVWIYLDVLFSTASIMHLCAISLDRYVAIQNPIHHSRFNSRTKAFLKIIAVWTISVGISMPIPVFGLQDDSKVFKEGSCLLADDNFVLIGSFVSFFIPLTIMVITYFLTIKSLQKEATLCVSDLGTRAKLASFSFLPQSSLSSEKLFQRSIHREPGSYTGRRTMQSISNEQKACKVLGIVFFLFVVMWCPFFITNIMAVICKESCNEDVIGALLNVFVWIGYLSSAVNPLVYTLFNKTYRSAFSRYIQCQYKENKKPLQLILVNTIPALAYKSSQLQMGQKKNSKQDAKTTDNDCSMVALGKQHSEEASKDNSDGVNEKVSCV

For `NCCc1ncc2ccccn12` [Compound 1, 2-(imidazo[1,5-a]pyridin-3-yl)ethan-1-amine], in test [1], the pIC50 was 5.00 to 6.00. The negative logarithm of the EC50 (pEC50) in test [2] was less than 5.00.

`CC(N)Cc1ncc2ccccn12` (stereo not drawn) [Compound 2, 1-(imidazo [1,5-a]pyridin-3-yl)propan-2-amine] gave a pIC50 in test [1] of 5.00 to 6.00. This compound also had a pEC50 in test [2] of 6.00 to 7.00.

`COc1ccn2c(CC(C)N)ncc2c1` (stereo not drawn) [Compound 3, 1-(7-methoxyimidazo[1,5-a]pyridin-3-yl)propan-2-amine] had a pIC50 in test [1] of 5.00 to 6.00. In test [2], this compound had a pEC50 of less than 5.00.

Consider `CC(N)Cc1ncc2cc(F)ccn12` (stereo not drawn) [Compound 4, 1-(7-fluoroimidazo[1,5-a]pyridin-3-yl)propan-2-amine], for which the pIC50 is 5.00 to 6.00 in test [3] and 6.00 to 7.00 in test [1]. The compound also showed a pEC50 in test [2] of less than 5.00.

Turning to `Cc1nc(CC(C)N)n2ccc(F)cc12` (stereo not drawn) [Compound 5, 1-(7-fluoro-1-methylimidazo [1,5-a]pyridin-3-yl)propan-2-amine], the pIC50 in test [1] was 5.00 to 6.00. This compound had a pEC50 in test [2] of 5.00 to 6.00.

On to `CC(C)(N)Cc1ncc2ccccn12` [Compound 6, 1-(imidazo [1,5-a]pyridin-3-yl)-2-methylpropan-2-amine], for which the pIC50 in test [3] was 6.00 to 7.00; in test [1], 5.00 to 6.00. Also, the pEC50 in test [2] was less than 5.00.

In turn, `Cc1cccc2cnc(CC(C)N)n12` (stereo not drawn) [Compound 7, 1-(5-methylimidazo[1,5-a]pyridin-3-yl)propan-2-amine] gave a pIC50 in test [1] of 5.00 to 6.00. Besides, the negative-log EC50 (pEC50) in test [2] is 5.00 to 6.00.

As for `Cc1cccn2c(CC(C)N)ncc12` (stereo not drawn) [Compound 8, 1-(8-methylimidazo[1,5-a]pyridin-3-yl)propan-2-amine], the pIC50 was less than 5.00 in test [3] and 5.00 to 6.00 in test [1]. Besides, the negative-log EC50 (pEC50) in test [2] is 5.00 to 6.00.

Turning to `Cc1ccc2cnc(CC(C)N)n2c1` (stereo not drawn) [Compound 10, 1-(6-methylimidazo[1,5-a]pyridin-3-yl)propan-2-amine], the pIC50 in test [1] is 5.00 to 6.00. This compound showed a negative logarithm of the EC50 (pEC50) in test [2] of 5.00 to 6.00.

In test [1], `Cc1nc(CC(C)N)n2ccccc12` (stereo not drawn) [Compound 11, 1-(1-methylimidazo[1,5-a]pyridin-3-yl)propan-2-amine] gave a pIC50 of 5.00 to 6.00. Further, the pEC50 in test [2] is 5.00 to 6.00.

On to `COc1ccn2c(CC(C)N(C)C)ncc2c1` (stereo not drawn) [Compound 16, 1-(7-methoxyimidazo[1,5-a]pyridin-3-yl)-N,N-dimethylpropan-2-amine], for which the pIC50 in test [1] was less than 5.00. The pEC50 in test [2] is less than 5.00.

In the case of `Cc1nc(CC(C)N(C)C)n2ccc(F)cc12` (stereo not drawn) [Compound 18, 1-(7-fluoro-1-methylimidazo [1,5-a]pyridin-3-yl)-N,N-dimethylpropan-2-amine], the pIC50 in test [1] was 5.00 to 6.00. For the same compound, the pEC50 in test [2] is less than 5.00.

On to `Cc1cccc2cnc(CC(C)N(C)C)n12` (stereo not drawn) [Compound 20, N,N-dimethyl-1-(5-methylimidazo [1,5-a]pyridin-3-yl)propan-2-amine], for which the pIC50 in test [1] is less than 5.00. In test [2], this compound gave a negative logarithm of the EC50 (pEC50) of less than 5.00.

Compound `Cc1cccn2c(CC(C)N(C)C)ncc12` (stereo not drawn) [Compound 21, N,N-dimethyl-1-(8-methylimidazo [1,5-a]pyridin-3-yl)propan-2-amine] gave a pIC50 in test [1] of 5.00 to 6.00. The compound further had a pEC50 in test [2] of less than 5.00.

Turning to `Cc1ccn2c(CC(C)N(C)C)ncc2c1` (stereo not drawn) [Compound 22, N,N-dimethyl-1-(7-methylimidazo [1,5-a]pyridin-3-yl)propan-2-amine], the pIC50 in test [1] was less than 5.00. Besides, the negative-log EC50 (pEC50) in test [2] is less than 5.00.

Consider `Cc1ccc2cnc(CC(C)N(C)C)n2c1` (stereo not drawn) [Compound 23, N,N-dimethyl-1-(6-methylimidazo [1,5-a]pyridin-3-yl)propan-2-amine], for which the pIC50 in test [1] was less than 5.00. Also, the pEC50 in test [2] was less than 5.00.

In the case of `Cc1nc(CC(C)N(C)C)n2ccccc12` (stereo not drawn) [Compound 24, N,N-dimethyl-1-(1-methylimidazo [1,5-a]pyridin-3-yl)propan-2-amine], the pIC50 in test [1] is less than 5.00. Also, in test [2], the pEC50 was less than 5.00.

`CCN(CC)C(C)Cc1ncc2ccccn12` (stereo not drawn) [Compound 25, N,N-diethyl-1-(imidazo[1,5-a]pyridin-3-yl)propan-2-amine] had a pIC50 in test [1] of 5.00 to 6.00. In addition, the negative-log EC50 (pEC50) in test [2] is less than 5.00.

`CC(Cc1ncc2ccccn12)N1CCOCC1` (stereo not drawn) [Compound 28, 4-(1-(Imidazo[1,5-a]pyridin-3-yl)propan-2-yl)morpholine] gave a pIC50 in test [1] of 5.00 to 6.00. In test [2], this compound gave a pEC50 of less than 5.00.

With `C[C@@H](Cc1ncc2ccccn12)N(C)C` [Compound 29, (S)-1-(imidazo[1,5-a]pyridin-3-yl)-N,N-dimethylpropan-2-amine], the pIC50 in test [1] was 5.00 to 6.00. Besides, in test [2], the negative logarithm of the EC50 (pEC50) was less than 5.00.

In test [1], `CC(N)Cc1cnc2ccccn12` (stereo not drawn) [Compound 33, 1-(imidazo[1,2-a]pyridin-3-yl)propan-2-amine] gave a pIC50 of less than 5.00. This compound gave a pEC50 in test [2] of less than 5.00.

The compound `COc1ccn2c(CC(C)N)cnc2c1` (stereo not drawn) [Compound 34, 1-(7-methoxyimidazo[1,2-a]pyridin-3-yl)propan-2-amine] had a pIC50 in test [1] of less than 5.00. The pEC50 in test [2] was less than 5.00.

Take `CC(N)Cc1cnc2cc(F)ccn12` (stereo not drawn) [Compound 35, 1-(7-Fluoroimidazo[1,2-a]pyridin-3-yl)propan-2-amine]: the pIC50 in test [1] is less than 5.00. Moreover, the pEC50 in test [2] is less than 5.00.

Compound `CC(Cc1cnc2ccccn12)N(C)C` (stereo not drawn) [Compound 36, 1-(imidazo[1,2-a]pyridin-3-yl)-N,N-dimethylpropan-2-amine] gave a pIC50 in test [1] of less than 5.00. The same compound showed a negative logarithm of the EC50 (pEC50) in test [2] of less than 5.00.

Regarding `COc1ccn2c(CC(C)N(C)C)cnc2c1` (stereo not drawn) [Compound 37, 1-(7-Methoxyimidazo[1,2-a]pyridin-3-yl)-N,N-dimethylpropan-2-amine], the pIC50 in test [1] was less than 5.00. Further, the negative logarithm of the EC50 (pEC50) in test [2] was less than 5.00.

On to `CC(Cc1cnc2cc(F)ccn12)N(C)C` (stereo not drawn) [Compound 38, 1-(7-Fluoroimidazo[1,2-a]pyridin-3-yl)-N,N-dimethylpropan-2-amine], for which the pIC50 in test [1] was less than 5.00. Also, the negative-log EC50 (pEC50) in test [2] was less than 5.00.

Compound `NCCc1ncn2ccccc12` [Compound 39, 2-(Imidazo[1,5-a]pyridin-1-yl)ethan-1-amine] showed a pIC50 in test [1] of 5.00 to 6.00. This compound also showed a negative-log EC50 (pEC50) in test [2] of 5.00 to 6.00.

Consider `CC(N)Cc1ncn2ccccc12` (stereo not drawn) [Compound 40, 1-(imidazo[1,5-a]pyridin-1-yl)propan-2-amine], for which the pIC50 in test [1] is 5.00 to 6.00. In test [2], this compound gave a pEC50 of less than 5.00.

Regarding `Cc1nc(CCN)c2ccccn12` [Compound 41, 2-(3-methylimidazo[1,5-a]pyridin-1-yl)ethan-1-amine], the pIC50 in test [1] was less than 5.00. In test [2], the negative logarithm of the EC50 (pEC50) is less than 5.00.

In the case of `Cc1nc(CC(C)N)c2ccc(F)cn12` (stereo not drawn) [Compound 42, 1-(6-fluoro-3-methylimidazo[1,5-a]pyridin-1-yl)propan-2-amine], in test [1], the pIC50 was 5.00 to 6.00. In addition, the negative-log EC50 (pEC50) in test [2] was 5.00 to 6.00.

On to `Cc1nc(CCN(C)C)c2ccccn12` [Compound 45, N,N-dimethyl-2-(3-methylimidazo [1,5-a]pyridin-1-yl)ethan-1-amine], for which, in test [1], the pIC50 is less than 5.00. Further, in test [2], the pEC50 was less than 5.00.

As to `Cc1nc(CC(C)N(C)C)c2ccc(F)cn12` (stereo not drawn) [Compound 46, 1-(6-fluoro-3-methylimidazo [1,5-a]pyridin-1-yl)-N,N-dimethylpropan-2-amine], the pIC50 in test [1] was 5.00 to 6.00. In test [2], this compound showed a negative-log EC50 (pEC50) of less than 5.00.

As for `NCCc1cnn2ccccc12` [Compound 47, 2-(Pyrazolo[1,5-a]pyridin-3-yl)ethan-1-amine], in test [1], the pIC50 was less than 5.00. Also, the pEC50 in test [2] is less than 5.00.

`CC(N)Cc1cnn2ccccc12` (stereo not drawn) [Compound 48, 1-(pyrazolo[1,5-a]pyridin-3-yl)propan-2-amine]: the pIC50 in test [1] was less than 5.00. For the same compound, the negative logarithm of the EC50 (pEC50) in test [2] was 5.00 to 6.00.

In test [1], `CN(C)CCc1cnn2ccccc12` [Compound 49, N,N-dimethyl-2-(pyrazolo[1,5-a]pyridin-3-yl)ethan-1-amine] showed a pIC50 of less than 5.00. This compound showed a negative logarithm of the EC50 (pEC50) in test [2] of less than 5.00.

The compound `CC(Cc1cnn2ccccc12)N(C)C` (stereo not drawn) [Compound 50, N,N-dimethyl-1-(pyrazolo[1,5-a]pyridin-3-yl)propan-2-amine] gave a pIC50 in test [1] of less than 5.00. The compound also had a pEC50 in test [2] of less than 5.00.
